In US10005773B2, “1-(4-pyrimidinyl)-1H-pyrrolo[3,2-c]pyridine derivatives as NIK inhibitors” (Janssen Pharmaceutica NV, priority 2013, dated 2018):

Key:
JJN-3 cells = test: Biological Assay C: antiproliferative activity on JJN-3 cells (CellTiter-Glo); format: cell-based; details: Homo sapiens, 72 hr treatment
Experimental: (§1) Determination of Antiproliferative Activity on LP-1, L-363 and JJN-3 Cells
(§2) All compounds tested were dissolved in DMSO and further dilutions were made in culture medium. Final DMSO concentration was 0.3% (v/v) in cell proliferation assays. Viability was assessed using CellTiter-Glo cell viability assay kit (Promega). The human LP-1, L-363 and JJN-3 cells (DSMZ) were cultured in RPMI 1640 medium supplemented with 2 mM L-glutamine, and 10% fetal calf serum (PAA). Cells were routinely kept as suspension cells at 37° C. in a humidified 5% CO2 atmosphere. Cells were passaged at a seeding density of 0.2×10^6/ml twice a week. Cells were seeded in black tissue culture treated 96-well plates (Perkin Elmer). Densities used for plating ranged from 2,000 to 6,000 cells per well in a total volume of 75 μl medium. After twenty four hours, drugs and/or solvents were added (25 μl) to a final volume of 100 μl. Following 72 hr of treatment plates were removed from the incubator and allowed to equilibrate to room temperature for approx 10 min. 100 μl CellTiter-Glo reagent was added to each well that was then covered (Perkin Elmer Topseal) and shaken on plate shaker for 10 min. Luminescence was measured on a HTS Topcount (Perkin Elmer). Within an experiment, the results for each treatment were the mean of 2 replicate wells. For initial screening purposes, compounds were tested using a 9 point dilution curve (serial 1:3 dilutions). For each experiment, controls (containing no drug) and a blank incubation (containing cells read at the time of compound addition) were run in parallel. The blank value was subtracted from all control and sample values. For each sample, the mean value for cell growth (in relative light units) was expressed as a percentage of the mean value for cell growth of the control.

L-363 cells = test: Biological Assay C: antiproliferative activity on L-363 cells (CellTiter-Glo); format: cell-based; details: Homo sapiens, 72 hr treatment
Experimental: as §1, §2

[1] = molecular target: Recombinant Human NF-kappaB-Inducing Kinase (NIK/MAP3K14) (Homo sapiens, UniProt Q99558); test: Biological Assay A2: inhibition of auto-phosphorylation of recombinant human NIK/MAP3K14 (AlphaScreen); format: biochemical; details: 25 microM ATP, 0.2 nM NIK/MAP3K14, 1 h at 25° C., averaged over all batches, read-out: Alpha-Screen IC50
Chain of Recombinant Human NF-kappaB-Inducing Kinase (NIK/MAP3K14) (Q99558 whole entry): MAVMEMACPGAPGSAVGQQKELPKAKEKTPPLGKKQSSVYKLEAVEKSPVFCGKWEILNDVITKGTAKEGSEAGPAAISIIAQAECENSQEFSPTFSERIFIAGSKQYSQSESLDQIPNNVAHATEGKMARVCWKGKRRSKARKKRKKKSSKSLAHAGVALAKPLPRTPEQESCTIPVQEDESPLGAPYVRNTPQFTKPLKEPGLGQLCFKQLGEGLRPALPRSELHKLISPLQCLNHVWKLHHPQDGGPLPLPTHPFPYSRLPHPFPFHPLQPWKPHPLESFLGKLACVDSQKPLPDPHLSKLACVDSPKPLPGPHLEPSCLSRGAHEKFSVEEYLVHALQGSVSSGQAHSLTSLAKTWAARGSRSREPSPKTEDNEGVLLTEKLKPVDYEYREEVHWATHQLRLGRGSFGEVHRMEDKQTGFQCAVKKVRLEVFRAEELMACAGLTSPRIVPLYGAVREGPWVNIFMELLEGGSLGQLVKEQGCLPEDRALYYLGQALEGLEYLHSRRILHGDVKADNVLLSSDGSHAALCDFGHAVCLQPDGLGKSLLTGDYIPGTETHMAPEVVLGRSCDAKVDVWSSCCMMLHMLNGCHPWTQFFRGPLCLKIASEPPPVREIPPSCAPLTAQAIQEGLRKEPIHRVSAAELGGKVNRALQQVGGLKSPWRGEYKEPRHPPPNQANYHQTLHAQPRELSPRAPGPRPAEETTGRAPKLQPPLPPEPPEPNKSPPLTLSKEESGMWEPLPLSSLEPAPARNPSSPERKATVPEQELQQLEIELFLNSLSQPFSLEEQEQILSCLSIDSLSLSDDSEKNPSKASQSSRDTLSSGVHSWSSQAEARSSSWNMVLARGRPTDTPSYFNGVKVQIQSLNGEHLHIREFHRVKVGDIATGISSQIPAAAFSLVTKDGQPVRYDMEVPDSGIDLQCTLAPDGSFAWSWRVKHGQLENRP
Experimental: Inhibition of Auto-Phosphorylation of Recombinant Human NF-kappaB-Inducing Kinase (NIKIMAP3K14) Activity (AlphaScreen®)
NIK/MAP3K14 auto-phosphorylation activity was measured using the AlphaScreen® (ascreen) format (Perkin Elmer). All compounds tested were dissolved in dimethyl sulfoxide (DMSO) and further dilutions were made in assay buffer. Final DMSO concentration was 1% (v/v) in assays. Assay buffer was 50 mM Tris pH 7.5 containing 1 mM EGTA (ethylene glycol tetraacetic acid), 1 mM DTT (dithiothreitol), 0.1 mM Na3VO4, 5 mM MgCl2, 0.01% Tween® 20. Assays were carried out in 384 well Alphaplates (Perkin Elmer). Incubations consisted of compound, 25 microM Adenosine-5′-triphosphate (ATP), and 0.2 nM NIK/MAP3K14. Incubations were initiated by addition of GST-tagged NIK/MAP3K14 enzyme, carried out for 1 h at 25° C. and terminated by addition of stop buffer containing anti-phospho-IKK Ser176/180 antibody. Protein A Acceptor and Glutathione-Donor beads were added before reading using an EnVision® Multilabel Plate Reader (Perkin Elmer). Signal obtained in the wells containing blank samples was subtracted from all other wells and IC50's were determined by fitting a sigmoidal curve to % inhibition of control versus Log10 compound concentration.

LP-1 cells = test: Biological Assay C: antiproliferative activity on LP-1 cells (CellTiter-Glo); format: cell-based; details: Homo sapiens, 72 hr treatment
Experimental: as §1, §2

Compound	EC50 (JJN-3 cells)	EC50 (L-363 cells)	IC50 [1]	EC50 (LP-1 cells)
CC(O)(C#Cc1cc2c(cn1)c(C1CCN(CCCF)CC1)cn2-c1nc(N)ncc1F)C1CC1 (stereo not drawn) [Compound 47]	242 nM	113 nM	34 nM	237 nM
[2H]C([2H])([2H])C(O)(C#Cc1cc2c(cn1)c(C1CCN(CCC(F)(F)F)CC1)cn2-c1ccnc(N)n1)C([2H])([2H])[2H] [Compound 50]	39 nM	23 nM	30 nM	41 nM
CC(O)(C#Cc1cc2c(cn1)c(C1CCN(CCC(F)(F)F)CC1)cn2-c1nc(N)ncc1F)C1CC1 (stereo not drawn) [Compound 46]	1090 nM	469 nM	56 nM	979 nM
CC(O)(C#Cc1cc2c(cn1)c(C1(F)CN(C3CC3)C1)cn2-c1ccnc(N)n1)C1CC1 (stereo not drawn) [Compound 42]	2790 nM	1540 nM	638 nM	18200 nM
CC(O)(C#Cc1cc2c(cn1)c(C1CCCN(CCC(F)(F)F)C1)cn2-c1nc(N)ncc1F)C1CC1 (stereo not drawn) [Compound 48]	1670 nM	1000 nM	227 nM	2230 nM
CC(C)(O)C#Cc1cc2c(cn1)c(C1CCN(CCF)CC1)cn2-c1nc(N)ncc1F [Compound 40]	151 nM	93 nM	74 nM	259 nM
COCCCc1cn(-c2nc(N)ncc2F)c2cc(C#CC(C)(C)O)ncc12 [Compound 39]	579 nM	369 nM	36 nM	849 nM
CN1CCC(c2cn(-c3ccnc(N)n3)c3cc(C#CC(C)(O)c4nccs4)ncc23)CC1 (stereo not drawn) [Compound 56]	2490 nM	1240 nM	26 nM	7890 nM
CN1CCC(c2cn(-c3ccnc(N)n3)c3cc(C#CC(C)(O)C4CC4)ncc23)CC1 (stereo not drawn) [Compound 41]	311 nM	213 nM	78 nM	3240 nM
Cc1cc(C(C)(O)C#Cc2cc3c(cn2)c(C2CCN(C)CC2)cn3-c2ccnc(N)n2)no1 (stereo not drawn) [Compound 54]	656 nM	213 nM	42 nM	2530 nM
CC(O)(C#Cc1cc2c(cn1)c(C1CCN(C3CC3)CC1)cn2-c1ccnc(N)n1)C1CC1 (stereo not drawn) [Compound 44]	202 nM	98 nM	71 nM	251 nM
[2H]C([2H])([2H])C(O)(C#Cc1cc2c(cn1)c(C1CCN(Cc3ccccc3)CC1)cn2-c1ccnc(N)n1)C([2H])([2H])[2H] [Compound 52]	89 nM	49 nM	31 nM	65 nM
